We go through three substances from patent US7928187B2, “Neuropeptide alarin” (Austria Wirtschaftsservice Gesellschaft mit beschrankter …, priority 2005, dated 2011).

Ends that are not written are not given here.

One assay has as its system CD-1 mouse skin. The assay is described as follows: Inflammatory oedema formation (plasma extravasation) in mouse dorsal skin. It is filed as in vivo. The protocol: Experiments involving mice were carried out under the Animals (Scientific Procedures) Act, 1986. Normal female CD-1 mice (22-27 g, 8-12 weeks) were obtained from Charles River, U.K. All mice were maintained on normal diet, with free access to food and water, in a climatically controlled environment. Animals were anaesthetized with urethane (25% w v-1; 2.5 g kg-1 i.p.) and the dorsal skin was shaved. Injection sites were chosen according to a randomized site pattern on the dorsal skin of the anaesthetized mouse. Agents were from Sigma, Poole, U.K., unless specified. Alarin (1-25)-amide (murine) alarin (3-32)-amide (murine) were custom synthesized by NeoMPS Inc. (Strasbourg, France). All peptides were dissolved in distilled water. The stock solutions (10 nM) were stored at −20° C. and further diluted in Tyrode's solution (137 mM NaCl, 2.7 mM KCl, 0.5 mM MgCl2, 0.4 mM NaH2PO4, 11.9 mM NaHCO3, 5.6 mM glucose) just prior use.
Plasma extravasation was used as an index of inflammatory oedema formation and measured as previously described (Cao et al, 1999). Briefly, test agents were diluted in Tyrode's solution and stored on ice. […] The amount of plasma extravasated (μl g-1 tissue) was calculated by comparing the amount of radioactivity in each skin site with that in 100 μl plasma from the same animal.

In another assay the target is T1, GALR2 receptor (Homo sapiens, UniProt O43603).
T1 construct: expressed in transfected cells; host or cells: SH-SY5Y human neuroblastoma cells
T1 sequence (O43603 1-387): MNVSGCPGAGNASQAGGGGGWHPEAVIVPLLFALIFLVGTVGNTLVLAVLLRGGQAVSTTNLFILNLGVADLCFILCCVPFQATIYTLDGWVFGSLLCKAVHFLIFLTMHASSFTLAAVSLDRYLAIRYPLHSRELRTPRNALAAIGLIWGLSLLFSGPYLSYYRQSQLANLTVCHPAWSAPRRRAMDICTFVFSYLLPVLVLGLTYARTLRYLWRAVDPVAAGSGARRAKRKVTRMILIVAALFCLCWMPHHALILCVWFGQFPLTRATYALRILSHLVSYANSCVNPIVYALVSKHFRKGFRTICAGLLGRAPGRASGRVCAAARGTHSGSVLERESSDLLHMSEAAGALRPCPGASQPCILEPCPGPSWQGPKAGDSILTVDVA
The assay is described as follows: Microphysiometry, extracellular acidification rate, SY5Y cells expressing GALR2. Particulars: human neuroblastoma cells SY5Y expressing GALR2; alarin 100 nM. It is filed as cell-based.

Assay [1] has as its system galanin receptors. The assay is described as follows: Receptor binding assay, displacement of radiolabeled GAL from membrane preparations. Particulars: binding assays and functional microphysiometry, 50 pM [125I]GAL. As to the method: Membrane preparations and radioligand binding assays were performed according to Berger et al. (Berger et al., 2002). Displacement of radiolabeled GAL binding to membrane preparations (15 μg) was carried out in duplicates in a total volume of 120 μl of binding buffer containing 50 pM [125I]GAL (2,000 Ci/mmol; Amersham Pharmacia Biotech (Little Chalfont, UK) and different concentrations of synthetic murine alarin (1-25-amide) and alarin (3-25-amide).

The test system of assay [2] is galanin receptors. The assay is described as follows: Microphysiometry on galanin receptor expressing cells, receptor activation. It is filed as cell-based, human. Particulars: binding assays and microphysiometry on galanin receptor expressing cells. The protocol:
After reaching confluency the cells are harvested and seeded into 3.0 μm pore transwells (Corning Costar) held in 12 well plates one day before the experiment. The cells are allowed to settle down in the culture medium and cultured overnight in serum-free growth-medium. The ECAR of cells is determined by using a Cytosensor Microphysiometer (Molecular Devices). A capsule spacer and a capsule insert are assembled in the transwells, transferred into a sensor chamber and kept in DMEM without sodium bicarbonate throughout the entire experiment at 37° C. The running medium is pumped through each sensor chamber at 50 μl min^−1. A typical pumping cycle of 120 s consists of a flow period of 90 s, followed by a flow-off period of 30 s. During flow-off periods, protons released from the cells accumulate in the sensor chamber, and the rate of proton release is quantified by fitting the sensor data to a straight line with the least-squares fit to the slope of the pH profile. Agonists or other agents are diluted into running medium and perfused through a second fluid path. […]
SH-SY5Y/GalR1 and SH-SY5Y/GalR2 cells (Berger 2004) were seeded into 3.0-μM pore size Transwells (Corning Costar, Cambridge, Mass., USA). The extracellular acidification rate was determined using a cytosensor microphysiometer (Molecular Devices, Ismanning, Germany) as previously reported (Lang et al., 2001).

The test system of another assay is CNS. The assay is described as follows: Functional assays in the CNS with murine alarin peptides. It is filed as in vivo, mice (C57Bl/6). Particulars: amidated synthetic murine peptides 1-25 and 3-25. The protocol: (§1) Intact adult male mice (C57Bl/6) were treated by a single injection into the lateral ventricles with either artificial cerebrospinal fluid (aCSF), alarin 1-25 (A1), alarin 3-25 (A3). Each treatment was given in an equimolar dose of 5 nmol. Body weight and food weight were measured at 1 hr, 2 hr, and 24 hr post injection. (Shown here as percent change in body weight from baseline).
(§2) Intact adult male mice (C57Bl/6) were treated by a single injection into the lateral ventricles with either artificial cerebrospinal fluid (aCSF), alarin 1-25 (A1), alarin 3-25 (A3). Each treatment was given in an equimolar dose of 5 nmol. Body weight and food weight were measured at 1 hr, 2 hr, and 24 hr post injection. (Shown here as grams of food consumed).
(§3) Intact adult male mice (C57Bl/6) were treated by a single injection into the lateral ventricles with either artificial cerebrospinal fluid (aCSF), alarin 1-25 (A1), alarin 3-25 (A3). Each treatment was given in an equimolar dose of 5 nmol. Blood was collected 30 min after injection and serum was assayed for LH content. (LH levels shown here in ng/ml).

Assay [3] is described as follows: Food intake after injection into the lateral ventricles. It is filed as in vivo, mice (C57Bl/6). Particulars: 5 nmol, single injection into lateral ventricles, one hour after injection, adult male mice. As to the method:
as §2

Assay [4] in a line: Body weight after injection into the lateral ventricles. It is filed as in vivo, mice (C57Bl/6). Particulars: 5 nmol, single injection into lateral ventricles, one hour after injection, adult male mice. As to the method:
as §1

Assay [5] in a line: Luteinising hormone (LH) level after injection into the lateral ventricles. Particulars: 5 nmol, single injection into lateral ventricles, blood collected 30 min after injection, adult male mice. It is filed as in vivo, mice (C57Bl/6). As to the method: as §3

Consider “APAHRSSTFPKWVTKTERGRQPLRS (listed as Homo sapiens) [alarin, novel neuropeptide, splice variant of GALP mRNA]”, for which the “inhibition of inflammatory oedema” value with CD-1 mouse skin (co-injection with substance P (300 pmol) and CGRP (10 pmol), intradermal, murine dorsal skin) was “inhibition of inflammatory oedema”. For the same substance, the “change in extracellular acidification” value with GALR2 receptor is “No change”. Further, in the assay with galanin receptors [1], the “binding to galanin receptors” value is recorded as “can be excluded”. Moreover, the “activation of galanin receptors” value with galanin receptors [2] was “not able to activate these receptors”.

“Alarin 1-25: amidated synthetic murine alarin peptide 1-25 (APAHRSSPFPPRPTRAGRETQLLRS-NH2)”: the “activity in the CNS” value with CNS is given as “only alarin 3-25 was active in the CNS”. The “potency in inhibition of oedema formation in the skin, alarin 1-25 compared with alarin 3-25” value in the assay with CD-1 mouse skin (amidated synthetic murine peptides) was “more potent”.

Regarding “Alarin 3-25: amidated synthetic murine alarin peptide 3-25 (AHRSSPFPPRPTRAGRETQLLRS-NH2)”, the food intake entry in assay [3] is “significant decrease”. Besides, the “activity in the CNS” value in the assay on CNS is “active”. For the same substance, the body weight entry in assay [4] is “significant reduction”. Also, in assay [5], the “plasma LH levels” value is on record as “significant increase”.
